Laboratory results published in patent US20050032904A1, “Composition and use of allylamine derivatives” (priority 2003, published 2005).

Tests used:
Type in all cases: cell-based, human
COLO 205 cells [1] = assay: Flow cytometry (FACS) cell cycle analysis
Experimental: When they were returned to culture media containing 10% FCS and 0.05% DMSO (control) or 90 μM TB in 0.05% DMSO (which started them all on a new cell cycle) and, at various times thereafter, they were harvested for flow cytometry analysis. […] COLO 205 (A) and HT29 (B) cells were synchronized with 0.04% FCS for 24 h as described in Examples. After synchronization, the cells were then released into complete medium (10% FCS) containing 0.05% DMSO (left panel), or 90 μM TB in 0.05% DMSO (right panel). Percentage of cells in G0/G1, S, and G2/M phases of the cell cycle were determined using established CellFIT DNA analysis software. […] In Hep3B (D) and HL60 (E), TB caused the occurrence of apoptosis in a dose-dependent manner. […] FACS analysis of DNA content after 15 h release from quiescence by incubation in culture media supplemented with 10% FCS and various concentrations of TB in 0.05% DMSO. Percentage of cells in G0/G1, S, and G2/M phases of the cell cycle were determined using established CellFIT DNA analysis software.
The invention further tested whether TB can induce cell cycle arrest at a lower concentration with longer exposure. […] The COLO 205 cells were exposed to culture media supplemented with 10% FCS and various concentrations (1 and 5 μM) of TB in 0.05% DMSO for the indicated times. Media with and without TB were changed daily until flowcytometry analysis performed. Percentage of cells in G0/G1, S, and G2/M phases of the cell cycle were determined using established CellFIT DNA analysis software. Three samples were analyzed in each group, and values represent the mean±S.E.
The COLO 205 and HT 29 cells were synchronized as previously described. (Chen R J, et. al., Toxicology & Applied Pharmacology 2000;169(2):132-41.). After the cells had grown to 70-80% confluence, they were rendered quiescent by incubation for 24 h in RPMI 1640 containing 0.04% FCS, and challenged with 10% FCS. Then, after release using trypsin-EDTA, they were harvested at various times, washed twice with PBS/0.1% dextrose, and fixed in 70% ethanol at 4° C. Nuclear DNA was stained with a reagent containing propimdiamdiodine (50 DNase-free RNase (2 U/ml) and measured using a fluorescence-activated cell sorter (FACS). The population of nuclei in each phase of the cell cycle was determined using established CellFIT DNA analysis software (Becton Dickenson, San Jose, Calif.).

HL 60 cells = assay: Flow cytometry (FACS) cell cycle analysis; conditions: TB 10-150 μM, 15 h
[2] = test system: cell cycle regulatory proteins in HL 60 cells; assay: Western blot of cell cycle regulatory proteins; conditions: TB 60-150 μM, 15 h
Experimental: (§1) To further test this hypothesis, the dose effects of TB on the levels of cell cycle regulatory protein were conducted in four different human cancer cell lines, COLO 205 (p53 wild type), HT 29 (p53 […] mutant), Hep 3B (p53 partial deleted) and HL 60 (p53 null). […] The cells were rendered quiescent for 24 h, and then challenged with 10% FCS and treated with various concentrations of TB (60-150 μM) for additional 15 h. Protein extracts (100 μg/lane) were separated by SDS-PAGE, probed with specific antibodies, and detected using the NBT/BCIP system. Membranes were also probed with anti-GAPDH antibody to correct for differences in protein loading. As previously described (Chen R J, et. al., Toxicology & Applied Pharmacology 2000;169(2):132-41.), the frozen tumor was pulverized in liquid N2, and then mixed with lysis buffer (Tris-HCl 0.5 M, pH 6.8, SDS 0.4%). For cell cultures, the cells were seeded onto 150-mm dishes and grown in RPMI 1640 (for COLO 205, HT 29 and HL 60 cells) or MEM (for Hep 3B) supplemented with 10% FCS. After the cells had grown to subconfluence, they were rendered quiescent. The cells were released from quiescence with culture medium supplemented with 10% FCS. TB in 0.05% DMSO or 0.05% DMSO without TB was added to the cells at various concentrations and the mixture was allowed to incubate for 17 h. Western blot analysis was performed as previously described (Chen R J, et. al., Toxicology & Applied Pharmacology 2000;169(2):132-41; Lee W S, et. al., Circulation Research 1998;82(8):845-51.). Immunodetection was carried by probing with proper dilutions of specific antibodies at room temperature for 2 h. Anti-p21/Cip1, anti-p27/Kip1, anti-p53, anti-GAPDH monoclonal antibodies (Santa Cruz, Inc. CA); anti-cyclin B1, D1, and D3, anti-cdk2 and cdk4, and PCNA monclonal antibodies (Transduction Laboratories, Lexington, Ky.) were used at a concentration of 1:1,000 dilution. Anti-cyclin A and E polyclonal antibodies (Transduction, San Diego, Calif.) were used at a concentration of 1:250 dilution. […] Sigma Chemical Co., St. Louis, Mo.). In each experiment, membranes were also probed with anti-GAPDH antibody to correct for differences in protein loading.

[3] = test system: cell cycle regulatory proteins in HT 29 cells; assay: Western blot of cell cycle regulatory proteins; conditions: TB 60-150 μM, 15 h; dose-dependent
Experimental: as §1

[4] = test system: cell cycle regulatory proteins in Hep 3B cells; assay: Western blot of cell cycle regulatory proteins; conditions: TB 60-150 μM, 15 h
Experimental: as §1

[5] = test system: p53 binding to p21/Cip1 promoter DNA, nuclear extracts of COLO 205 cells; assay: Electrophoretic mobility shift assay (EMSA); conditions: 60 μM TB
Experimental: Antisense or sense p53 was added to COLO 205 at a final concentration of 20 μM at 16 h before the cell was challenged with 10% FCS and 60 μM TB treatment for additional 15 h. […] The radio labeled DNA (4 ng, 100,000 cpm) was incubated with nuclear extract in 15 μl of binding buffer (10 mM Tris-HCl, pH 8.0, 1 mM EDTA, 10% glycerol, 200 mM NaCl, and 1 μg probe DNA) on ice for 5 min. The samples were electrophoresed in a 5% polyacrylamide gel, dried on Whatman 3M paper, and then exposed to Fuji x-ray films at -70° C.

COLO 205 cells [6] = assay: DNA fragmentation (DNA ladder) by electrophoresis of genomic DNA
Experimental: Genomic DNAs extracted from TB-treated COLO 205 were examined by gel electrophoresis. […] In FIG. 9, the part of (A) refers to potentiation of ND-induced apoptosis by TB. […] DNA fragmentation was examined at 24 h after drug treatment. In the lanes 2 and 8, cells received mock treatment as controls. The symbols of “M” (in lanes 1 and 7), refer to “DNA size marker.” (B) average tumor volume of DMSO-treated vs. drug-treated nude mice (n=5). (C) tumor weight, (D) animal body weight, and (E) tumor/body weight ratio were measured at the end of experiment. Five samples were analyzed in each group, and values represent the mean±S.E. Comparisons were subjected to ANOVA followed by Fisher's least significant difference test. Significance was accepted at p<0.05. *TB-, ND-, and TB+ND-treated group different from DMSO-treated group. TB+ND-treated group different from TB- or ND-treated group.

CN(C/C=C/C#CC(C)(C)C)Cc1cccc2ccccc12 [TB, 1-Naphthalenemethanamine, N-(6,6-dimethyl-2-hepten-4-ynyl)-N-methyl-, (E)-]
increase of G0/G1 population (COLO 205 cells [1]; 60 μM TB alone, 15 h): about 2.3 fold
accumulation of cells at the G0/G1 phase (COLO 205 cells [1]; 90 μM TB after release from quiescence): > 90%
G0/G1 cell cycle arrest at low concentration with longer exposure (COLO 205 cells [1]; TB 1 μM for 3 days): arrested the COLO 205 cells at the G0/G1 phase
G0/G1 cell cycle arrest at low concentration with longer exposure (COLO 205 cells [1]; TB 1 μM for 4 days, media changed daily): induce significant G0/G1 cell cycle arrest
G0/G1 arrest, dose effect (COLO 205 cells [1]; various concentrations of TB, 15 h after release from quiescence, dose-dependent): induced G0/G1 arrest
apoptosis (presence of sub G1) (HL 60 cells): dose-dependently caused the occurrence of apoptosis
G0/G1 arrest (HL 60 cells; p53 null cells): did not induce G0/G1 arrest
levels of p53 and p21/Cip1 protein, dose effect [2]: did not change
levels of p27/Kip1 protein, dose effect ([2]; dose-dependent): significantly increased
levels of cyclin D3 and cdk4, dose effect [3]: decreased
levels of p53, p21/Cip1 and p27/Kip1 protein, dose effect [3]: increased
levels of p53 and p21/Cip1 protein, dose effect [4]: did not change
levels of p27/Kip1 protein, dose effect ([4]; dose-dependent): significantly increased
binding between p53 protein and p53 consensus binding site in p21/Cip1 promoter DNA probe [5]: increased the binding
DNA ladder (COLO 205 cells [6]; 10 μM TB alone, 24 h): does not induce DNA ladder
effect of TB on ND-induced apoptosis (COLO 205 cells [6]; co-treatment with TB 10 μM and ND): enhanced the ND-induced apoptosis
